# In patent US8101583B2, “1,4-benzothiepin-1,1-dioxide derivatives which are substituted with fluorine, method for producing the same, drugs containing said compounds and use thereof” (Sanofi-Aventis Deutschland GmbH, priority 2006, dated 2012):
# Target: T1, human IBAT (Homo sapiens, UniProt Q12908)
# T1 construct: Bases 599 to 1645 correspond to the complete coding region of human IBAT; expressed in transfected cells
# T1 sequence (Q12908 1-348): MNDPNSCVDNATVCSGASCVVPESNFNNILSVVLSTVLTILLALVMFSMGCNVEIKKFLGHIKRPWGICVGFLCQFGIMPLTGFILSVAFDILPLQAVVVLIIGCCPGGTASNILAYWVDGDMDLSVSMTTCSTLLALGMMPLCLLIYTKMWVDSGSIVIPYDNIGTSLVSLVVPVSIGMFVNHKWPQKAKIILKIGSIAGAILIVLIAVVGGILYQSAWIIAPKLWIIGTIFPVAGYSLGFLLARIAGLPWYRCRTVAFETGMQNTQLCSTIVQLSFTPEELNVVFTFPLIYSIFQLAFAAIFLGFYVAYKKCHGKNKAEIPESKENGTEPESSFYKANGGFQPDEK
# Assay: in vitro IBAT inhibition assay: IBAT-dependent uptake of [3H]-taurocholic acid into CHO-hIBAT cells
# Format: cell-based
# Conditions: taurocholic acid 10 μM, 60 min at room temperature, read-out: IC-50 (human IBAT)
# Source text: Preparation and procedure for the in vitro IBAT inhibition assay:
# 1. Cloning of an Expression Vector for Human IBAT
# The cDNA (complementary deoxyribonucleic acid) of human IBAT was cloned by standard methods of molecular biology as described for example in Molecular Cloning: A Laboratory Manual by Joseph Sambrook and David Russell, and introduced into the pcDNA1 vector from Invitrogen. […] Bases 599 to 1645 correspond to the complete coding region of human IBAT.
# 2. Preparation of a Recombinant Cell Line with Constitutive Expression of Human IBAT
# The expression vector for human IBAT was introduced by stable transfection into CHO (chinese hamster ovary) cells. To select single cell clones, 400 μg/ml Geneticin was added to the cell culture medium (Ham's F12 medium supplemented with 10% fetal calf serum, 100 units/ml penicillin, 100 units/ml streptomycin). The functionality of the single cell clones resulting from the selection was assayed via their uptake activity for radiolabeled taurocholic acid ([^3H]-TCA). The cell clone with the highest uptake activity for [^3H]-TCA, referred to hereinafter as CHO-hIBAT, was selected for the further assays and further cultured in the presence of 400 μg/ml Geneticin.
# 3. Measurement of the Inhibitory Effect of the Compound of the Invention on the IBAT-Dependent Uptake of Taurocholic Acid into Cells
# CHO-hIBAT cells were seeded in a concentration of 40 000 cells per well in poly-D-lysine-coated 96-well plates in cell culture medium and cultured for 24 h. The cells were then washed once with sodium-free transport assay buffer (140 mM choline chloride, 2 mM potassium chloride, 1 mM magnesium chloride, 1 mM calcium chloride, 10 mM HEPES/Tris, pH 7.5) and subsequently incubated either with sodium-free transport assay buffer as negative control or with sodium-containing transport assay buffer (140 mM sodium chloride, 2 mM potassium chloride, 1 mM magnesium chloride, 1 mM calcium chloride, 10 mM HEPES/Tris, pH 7.5) as positive control at room temperature for 30 min. At the same time, the assay wells were also incubated in the presence of the compound to be investigated in varying concentration in sodium-containing transport assay buffer at room temperature for 30 min. The test substances were appropriately diluted in transport assay buffer (40 μl/well) starting from a 10 mM stock solution in dimethyl sulfoxide. The assay was then started by adding 10 μl/well of a mixture of radiolabeled taurocholic acid ([^3H]-TCA) and unlabeled taurocholic acid. The final concentration of taurocholic acid in the assay was 10 μM. After an incubation time of 60 min at room temperature, the reaction was stopped by adding 100 μl/well sodium-free transport assay buffer (4° C.), and each well was washed three times with sodium-free transport assay buffer. Finally, 100 μl of scintillation fluid were added to each well, and the radioactivity taken up into the cells was determined in a MicroBeta Scintillation Microplate Reader from Wallac.
# The half-maximum inhibitory effect of the test compound (IC50 value, inhibitory concentration 50) was determined in the following way: • 1. Determination of the value for 0% inhibition. This is the measurement in the absence of substance, measured in sodium-containing transport assay buffer. • 2. Determination of the value for 100% inhibition. This is the measurement in the absence of substance, measured in sodium-free transport assay buffer. • 3. […]
row,Structure (SMILES),IC50
1,CCCC[C@]1(CC)CS(=O)(=O)c2ccc(N(C)C)cc2[C@@H](c2cccc(NC(=O)N[C@@H]3O[C@H](CO)[C@@H](F)[C@H](O)[C@H]3O)c2)[C@H]1O [Example 1],6.5 nM
2,CCCC[C@]1(CC)CS(=O)(=O)c2ccc(N(C)C)cc2[C@@H](c2cccc(NC(=O)N[C@@H]3O[C@H](COS(=O)(=O)O)[C@@H](F)[C@H](O)[C@H]3O)c2)[C@H]1O [Example 2],3.9 nM
3,CCCC[C@]1(CC)CS(=O)(=O)c2ccc(N(C)C)cc2[C@@H](c2cccc(NC(=O)N[C@@H]3O[C@H](COS(=O)(=O)O)C(F)(F)[C@H](O)[C@H]3O)c2)[C@H]1O [Example 4],3.6 nM

# The remaining molecules from weak to strong by IC50, led by results:
row,IC50,Structure (SMILES)
1,5.6 nM,CCCC[C@]1(CC)CS(=O)(=O)c2ccc(N(C)C)cc2[C@@H](c2cccc(NC(=O)N[C@@H]3O[C@H](CS(=O)(=O)O)[C@@H](F)[C@H](O)[C@H]3O)c2)[C@H]1O [Example 5]
2,5.3 nM,CCCC[C@]1(CC)CS(=O)(=O)c2ccc(N(C)C)cc2[C@@H](c2cccc(NC(=O)N[C@@H]3O[C@H](CO)C(F)(F)[C@H](O)[C@H]3O)c2)[C@H]1O [Example 3]
